The values below come from US20230372337A1, “Combination Therapy Comprising an AXL Inhibitor” (BERGENBIO ASA, priority 2020, published 2023).

Where two headings read alike, the source gives them in different places.

Test [1] concerns LL2 cells. Description: Resazurin viability assay of LL2 cells (Example 4). The test is classed as cell-based, mouse. The method, then: (§1) 4T1 cells (ATCC, CRL-2539) were cultured in RPMI-1640 (Sigma, Cat. #R8758) supplemented with 10% fetal bovine serum (FBS), L-glutamine (4 mM), streptomycin (5 μg/ml) and penicillin (5 U/ml). […] Lewis lung carcinoma cells LL/2 (LLC1) (ATCC, CRL-1642™) were cultured in Dulbecco's Modified Eagle's Medium ATCC® 30-2002™ (4 mM L-glutamine, 4500 mg/L glucose, 1 mM sodium pyruvate, and 1500 mg/L sodium bicarbonate).
(§2) The IC50 of the different drugs were calculated by resazurin viability assay. […] The cells were treated for 48 hours.

Test [2] relates to LL2 cells. Description: qRTPCR of IFN related genes in Lewis lung carcinoma (LL2) cells in vitro (Example 4). It is filed as cell-based, mouse. The method, then: as §1
RNA was extracted from snap frozen tumors using the RNEasy Microarray Tissue Mini kit from Qiagen following the manufacturer's instructions. As tumors contained Doxorubicin and powderizing them could expose personnel to harmful substances, the RNA was extracted in a closed system using the GentleMACS dissociator and M Tubes. Purity and concentration of RNA was measured using Nanodrop. RT^2 Profiler™ PCR Array. cDNA was synthesized from RNA using the RT^2 First Strand kit (Qiagen) according to the manufacturer's instructions. cDNA was mixed with RT^2 SYBR Green Mastermix (Qiagen) and loaded into RT^2 Profiler™ PCR Array Mouse Type I Interferon Response or RT^2 Profiler™ PCR Array Mouse Epithelial to Mesenchymal Transition (EMT), analyzing the expression of the genes listed in Table 17. The plates were analyzed using Light Cycler 480 (Roche) and data were analyzed using the Qiagen Data Analysis Centre and Graph Pad (Prism).
Chemotherapeutic agents commonly used to treat lung cancer patients were evaluated for effects on the IFN response. Cisplatin, navelbine and docetaxel were tested in vitro in combination with bemcentinib.
as §2
(In general: In qPCR the cycle at which signal appears reflects the starting amount.)

Test [3] deals with type I IFN related genes (ISG). Description: RT2 Profiler PCR Array Mouse Type I Interferon Response on 4T1 tumors (Example 2). It is filed as in vivo, Balb/c mice. An excerpt:
Bemcentinib was given as a loading dose for 3 days (11-13 after tumor implantation) and then as a standard dose until sacrifice.
9 mice have been excluded of the study because of the absence of tumor on day 11. On day 11 post implantation half of the cages were placed in the bemcentinib treated group and the other half in the […]. The average tumor volume when bemcentinib treatment was initiated (day 11) was 54.99 mm^3. […] The tumor volumes when bemcentinib treatment was initiated and the day of randomization are recorded in table 8. The intra tumomoral injection of doxorubicin and sting agonists was adjusted to the tumor volume.
Doxorubicin is provided in a 2 mg/ml solution. As it is technically challenging to inject 50 ul liquid into tumors measuring <100 mm^3, the total dosing volume was calculated based on the following formula: V=50 ul×(TV/120). This is done to minimize variability due to leakage during intratumoral injection. For the 1 mg/kg dose (E,F) Doxorubicin was given at a concentration of 0.5 mg/ml, which corresponds to 1 mg/kg for a 25 g mouse with a tumor of 120 mm^3, and 1 mg/kg for a 20 g mouse with a tumor of 100 mm^3. For 3 mg/kg dose (G,H), a solution of 1.5 mg/ml was used and same volumes was injected. For the 6 mg/kg dose (I,J) the commercial solution of 2 mg/ml will be used and 75 ul was injected for tumor with a volume of 120 mm^3.
The same formula as for doxorubicin was used V=50 ul×(TV/120).
RNA was extracted from […] snap frozen tumors using the RNEasy Microarray Tissue Mini kit from Qiagen following the manufacturer's instructions. As tumors contained Doxorubicin and powderizing them could expose personnel to harmful substances, the RNA was extracted in a closed system using the GentleMACS dissociator and M Tubes. Purity and concentration of RNA was measured using Nanodrop. cDNA was synthesized from RNA using the RT^2 First Strand kit (Qiagen) according to the manufacturer's instructions. cDNA was mixed with RT^2 SYBR Green Mastermix (Qiagen) and loaded into RT Profiler™ PCR Array Mouse Type I Interferon Response or RT^2 Profiler™ PCR Array Mouse Epithelial to Mesenchymal Transition (EMT), analyzing the expression of 84 genes listed in Tables 9 and 10. The plates were analyzed using Light Cycler 480 (Roche) and data were analyzed using the Qiagen Data Analysis Centre and Graph Pad (Prism).
Quiagen RT^2 software was used to analyze all the samples from different groups. To be able to generate heatmaps and graph on fold change including error bars, the data have been analyzed manually with Graph Pad (Prism) when the Quiagen RT^2 software gave significant results between the different groups. For IFN type 1 response 1 mg/kg 48, 72 h and 3 mg/kg 48 h, were analyzed manually. For EMT, 1 mg/kg 48, 72 h, 3 mg/kg 72 h. When the data have been analyzed manually, the results are presented as histograms of mRNA fold changes. For the time points and doses analyzed by the software, the results are presented as tables.
GraphPadPrism was used to generate the heat maps, graphs with mRNA fold change, and to make the statistics. Multiple TTests, paired were performed on ΔΔ Ct values.
The expression of type I IFN related genes (ISG) was assessed in tumors collected 24, 48 and 72 hours after i.t. doxorubicin treatment. 3 groups were compared per timepoint: bemcentinib (bern), doxorubicin only (dox) and doxorubicin combined with bemcentinib (doxbern), the fold changes were compared with the control groups injected with PBS, and the fold change was 1 for the control groups.

The subject of test [4] is 43 mouse cytokines. Description: Plasma cytokines, ProcartaPlex Multiplex Immunoassay (Luminex) (Example 2). The test is classed as in vivo, Balb/c mice. As to conditions: DMXAA, 48 h post injection, treated groups.
Protocol: The manufacturer user guide was followed. The samples were analyzed by (MAGPIX) and the results were obtained as concentration in pg/ml of mouse plasma. At least 3 samples per group, 4 for many, were analyzed.
The subject of test [5] is 4T1 mammary carcinoma cells. Description: Tumor growth, 4T1 model (Example 2). On the set-up: species or system Balb/c mice. Conditions: short in vivo study, single i.t. injection day 15.
Protocol: Tumor growth was measured with a digital handheld caliper twice weekly from emergence of tumor and until the day of euthanasia
The subject of test [6] is 4T1 cells. Description: qRTPCR of IFN related genes in 4T1 cells in vitro (Example 4). Conditions: with or without bemcentinib. The test is classed as cell-based, mouse.
The subject of test [7] is Yumm1.7 cells. Description: qRTPCR of IFN related genes in Yumm1.7 cells in vitro (Example 4). The test is classed as cell-based, mouse. As to conditions: Yumm1.7 cells; DMXAA treatment; 13 ISG tested.
Setting [8] is: in the presence of bemcentinib, read-out: IC50 with bem.
The mark [9] stands for this setting: Mus musculus, LL/2, read-out: IC50 without bem.

By IC50 is commonly meant the point on the concentration scale where inhibition reaches its midpoint. In the case of `N.N.[Cl][Pt][Cl]` [Cisplatin, cisplatin], the figures for the concentration for half-maximal inhibition (IC50) in test [1] (setting [8]) and in test [1] (read-out: IC50 without bem) were 4650 nM and 6190 nM, respectively. For the same molecule, the “ISGs upregulated compared to control (number)” value in test [2] (cisplatin 5 uM, 48 hours) is 11.
Regarding `CC(=O)O[C@@]12CO[C@@H]1C[C@H](O)[C@@]1(C)C(=O)[C@H](O)C3=C(C)[C@@H](OC(=O)[C@H](O)[C@@H](NC(=O)OC(C)(C)C)c4ccccc4)C[C@@](O)([C@@H](OC(=O)c4ccccc4)[C@H]21)C3(C)C` [Docetaxel, docetaxel], the values for the IC50 in test [1] (setting [9]) and in test [1] (setting [8]) were 14.1 nM and 7.26 nM, respectively. For the same molecule, the “ISG significantly upregulated compared to control (number)” value in test [2] (docetaxel 5 nM) is listed as 2.
Turning to `Cc1ccc2c(=O)c3cccc(CC(=O)O)c3oc2c1C` [DMXAA, 5,6-Dimethylxanthenone-4-acetic Acid], the “ISG significantly upregulated compared to control (number)” value in test [3] (24 hours after DMXAA i.t. treatment) came to 8. The “ISG upregulated (number)” value in test [3] (48 hours after DMXAA injection) is reported as 1; in test [7] it was 4. Besides, the “Cytokines with different concentration compared with controls (number)” value in test [4] was 8. Also, the Tumor growth entry in test [5] is given as “decreased tumor growth”. The “IFN response after DMXAA stimulation” value in test [6] is given as “No significant changes”. Besides, the IC50 without bem result in test [1] is “No effect”. In addition, in test [1] (in the presence of bemcentinib), the IC50 with bem result is reported as “No effect”. Further, the “ISG upregulated compared to control (number)” value in test [2] (DMXAA 25 ug/ml, 48 hours) was determined as 20.
Take `CCC1=C[C@@H]2CN(C1)Cc1c([nH]c3ccccc13)[C@@](C(=O)OC)(c1cc3c(cc1OC)N(C)[C@H]1[C@@](O)(C(=O)OC)[C@H](OC(C)=O)[C@]4(CC)C=CCN5CC[C@]31[C@@H]54)C2` [Navelbine, vinorelbine]: the results for the 50% inhibitory concentration (IC50) in test [1] (setting [9]) and in test [1] (setting [8]) were 10.1 nM and 0.752 nM, respectively. For the same molecule, the “ISG upregulated (number)” value in test [2] (navelbine 1 nM, 48 hours) is “Four”.
